Experimental data from patent US4452778A, “Synergistic antibacterial compositions and method of treatment of infections caused by multiple antibiotic-resistant organisms” (Eli Lilly and Company, priority 1981, dated 1984).
Where two headings read alike, the source gives them in different places.

Key:
Pseudomonas aeruginosa = test: Checkerboard broth dilution synergy study (mic); type: cell-based; settings: for MIC: Pseudomonas aeruginosa, read-out: mic, drug alone
Proteus rettgeri = test: Checkerboard broth dilution synergy study (mic); type: cell-based; settings: for MIC: Providencia rettgeri, read-out: mic, drug alone

## COC1(NC(=O)C(C(=O)O)c2ccc(O)cc2)C(=O)N2C(C(=O)O)=C(CSc3nnnn3C)COC21 (stereo not shown) [1-oxa compound I, moxalactam]
Pseudomonas aeruginosa; Table II, strain 84
  MIC: 16 µg/mL
  mic of each drug in combination I + P: 4 µg/mL
  mic of each drug in combination I + T: 2 µg/mL
Pseudomonas aeruginosa; Table II, strain 366
  MIC: 16 µg/mL
  mic of each drug in combination I + P: 8 µg/mL
  mic of each drug in combination I + T: 0.5 µg/mL
Pseudomonas aeruginosa; Table II, strain 424
  MIC: 8 µg/mL
  mic of each drug in combination I + P: 2 µg/mL
  mic of each drug in combination I + T: 2 µg/mL
Pseudomonas aeruginosa; Table II, strain 447
  MIC: 32 µg/mL
  mic of each drug in combination I + P: 4 µg/mL
  mic of each drug in combination I + T: < 0.5 µg/mL
Pseudomonas aeruginosa; Table II, strain 1484
  MIC: 64 µg/mL
  mic of each drug in combination I + P: 16 µg/mL
  mic of each drug in combination I + T: 4 µg/mL
Pseudomonas aeruginosa; Table II, strain Davis
  MIC: > 64 µg/mL
  mic of each drug in combination I + P: 8 µg/mL
  mic of each drug in combination I + T: 2 µg/mL
Pseudomonas aeruginosa; Table III, isolate 316-2
  MIC: 8 µg/mL
  mic of each drug in combination I + A: 4 µg/mL
Pseudomonas aeruginosa; Table III, isolate 362
  MIC: 32 µg/mL
  mic of each drug in combination I + A: 4 µg/mL
Pseudomonas aeruginosa; Table III, isolate 363
  MIC: 32 µg/mL
  mic of each drug in combination I + A: 1 µg/mL
Pseudomonas aeruginosa; Table III, isolate 610
  MIC: > 64 µg/mL
  mic of each drug in combination I + A: 0.6 µg/mL
Pseudomonas aeruginosa; Table III, isolate Brownlee
  MIC: 32 µg/mL
  mic of each drug in combination I + A: 1 µg/mL
Proteus rettgeri; Table II, strain 65
  MIC: 0.25 µg/mL
  mic of each drug in combination I + T: 0.12 µg/mL
Proteus rettgeri; Table III, isolate 53
  MIC: 0.25 µg/mL
  mic of each drug in combination I + A: < 0.06 µg/mL
Proteus rettgeri; Table III, isolate 136-1
  MIC: 0.25 µg/mL
  mic of each drug in combination I + A: 0.12 µg/mL
Proteus rettgeri; Table III, isolate 768
  MIC: 0.5 µg/mL
  mic of each drug in combination I + A: < 0.06 µg/mL
Proteus rettgeri; Table III, isolate 997
  MIC: 0.4 µg/mL
  mic of each drug in combination I + A: < 0.06 µg/mL
Proteus rettgeri; Table III, isolate 1422
  MIC: 2 µg/mL
  mic of each drug in combination I + A: 2 µg/mL
